Entries after “also recorded” stand apart in the source; their conditions may differ.
Tests used:
CDK16 = molecular target: T1, CDK16 (Homo sapiens, UniProt Q00536); experiment: DSF; assay type: binding; details: 10 μM compound
T1 construct: purchased in-house DSF panel (SGC Frankfurt)
Method in brief: (§1)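 Differential scanning fluorimetry follows unfolding of the protein through fluorescence of a dye that depends on folding state. The value is ΔTm, the melting-temperature shift between compound-free and compound-bound protein. Duplicate measurements.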

CDK2 = molecular target: T2, CDK2 (Homo sapiens, UniProt P24941); experiment: DSF; assay type: binding; details: 10 μM compound
T2 construct: purchased in-house DSF panel (SGC Frankfurt)
Method in brief: as §1

CAMKK2 = molecular target: T3, CAMKK2 (Homo sapiens, UniProt Q96RR4); experiment: DSF; assay type: binding
T3 construct: purchased in-house DSF panel (SGC Frankfurt)
Description: (§2) Recombinant protein kinase domains with a concentration of 2 μM were mixed with a 10 μM compound solution in DMSO, 20 mM HEPES, pH 7.5, and 500 mM NaCl. SYPRO Orange (5000×, Invitrogen) was added as a fluorescence probe (1 µl per mL). Subsequently, temperature-dependent protein unfolding profiles were measured, using the QuantStudio™ 5 realtime PCR machine (Thermo Fisher, Waltham, MA, USA). […] The temperature was raised with a step rate of 3 °C per minute. Data points were analyzed with the internal software (Thermal Shift SoftwareTM Version 1.4, Thermo Fisher) using the Boltzmann equation to determine the inflection point of the transition curve [56]. Differences in melting temperature are given as ΔTm values in °C. Measurements were performed in duplicates.

MAP2K6 = molecular target: T4, MAP2K6 (Homo sapiens, UniProt P52564); experiment: DSF; assay type: binding
T4 construct: purchased in-house DSF panel (SGC Frankfurt)
T4 sequence (P52564 53-314): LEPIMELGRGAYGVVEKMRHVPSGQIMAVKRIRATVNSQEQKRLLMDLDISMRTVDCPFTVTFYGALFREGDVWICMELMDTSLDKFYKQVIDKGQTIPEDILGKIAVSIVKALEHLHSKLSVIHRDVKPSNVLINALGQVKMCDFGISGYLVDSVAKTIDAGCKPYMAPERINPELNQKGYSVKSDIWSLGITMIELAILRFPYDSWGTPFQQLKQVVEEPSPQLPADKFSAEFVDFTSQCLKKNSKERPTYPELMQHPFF
Description: as §2

MAPK15 = molecular target: T5, MAPK15 (Homo sapiens, UniProt Q8TD08); experiment: DSF; assay type: binding
T5 construct: purchased in-house DSF panel (SGC Frankfurt)
T5 sequence (Q8TD08 1-346): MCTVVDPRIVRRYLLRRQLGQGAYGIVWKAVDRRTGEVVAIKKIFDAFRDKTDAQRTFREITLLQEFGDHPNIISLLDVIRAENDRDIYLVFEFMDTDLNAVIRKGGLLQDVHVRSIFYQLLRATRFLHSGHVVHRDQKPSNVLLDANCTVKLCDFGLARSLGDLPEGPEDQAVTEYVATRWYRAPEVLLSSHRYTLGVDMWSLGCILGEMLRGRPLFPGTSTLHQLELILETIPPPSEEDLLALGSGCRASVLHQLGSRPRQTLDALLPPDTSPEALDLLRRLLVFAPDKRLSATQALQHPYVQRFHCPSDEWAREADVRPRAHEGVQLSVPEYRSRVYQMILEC
Description: as §2

HCT116-FUCCI cells = experiment: FUCCI cell cycle assay and viability assessment; assay type: cell-based; details: for effect on the cell cycle (FUCCI): 1, 5, 10 µM (milciclib 1, 10 µM); for effect on the cell cycle (FUCCI) / pyknosed nuclei: 24 h; for pyknosed nuclei: average; for effect on cell count: 1, 5, 10 µM vs DMSO 0.1 %; for cells compared to the control: after 72 h, vs DMSO 0.1 %
Description: This technology enables the detection of cell cycle states (G1, G2/M, or S phase) on a single cell level. Additionally, a viability assessment, as described by Tjaden et. al., was performed using Hoechst33342 as a nuclear marker. […] At 10 µM of the same compound, the pyknosed nuclei rate was even higher, on average 45% (Figure 9C). An increase in cells including a pyknosed nucleus indicate apoptotic cell death, due to typical morphological changes like DNA condensation. […] Milciclib is a published CDK2 inhibitor and was used as a reference compound [55]. […] At later time points, the G2/M phase arrest was no longer detectable (Table S7). This can be explained due to the increasing amount of apoptotic cells.
To validate the influence of the compounds on the cell cycle, a florescent ubiquitination-based cell cycle indicator (FUCCI) assay was performed as described previously. In Brief, HCT116-FUCCI cells, stably expressing the FUCCI system, introduced by the Sleeping Beauty transposon system, were seeded at a density of 1250 cells per well in a 384 well plate (Cell culture microplate, PS, f-bottom, µClear®, 781091, Greiner, Frickenhausen, Germany) in culture medium (50 µL per well) and stained additionally with 60 nM Hoechst33342 (Thermo Scientific). Fluorescence and cellular shape were measured before and after compound treatment for 72 h every 12 h using the CQ1 high-content confocal microscope (Yokogawa, Tokyo, Japan). Compounds were added directly to the cells at three different concentrations (1 µM, 5 µM and 10 µM). The following parameters were used for image acquisition: Ex 405 nm/Em 447/60 nm, 500ms, 50%; Ex 561 nm/Em 617/73 nm, 100 ms, 40%; Ex 488/Em 525/50 nm, 50 ms, 40%; Ex 640 nm/Em 685/40, 50 ms, 20 %; bright field, 300ms, 100% transmission, one centered field per well, 7 z stacks per well with 55 µm spacing. Analysis of images was performed using the CellPathfinder software (Yokogawa). The cell count was normalized against the cell count of cells treated with 0.1% DMSO. All normal gated cells were further classified in cells containing healthy, fragmented or pyknosed nuclei. […] Error bars show SEM of biological duplicates. All data can be found in Table S7.

GSK3B = GSK3B (Homo sapiens, UniProt P49841); experiment: DSF; assay type: binding; parameters: purchased in-house DSF panel (SGC Frankfurt); details: 10 μM compound
Method in brief: as §1

RPS6KA6 = experiment: DSF; assay type: binding
Description: as §2

CDK16 and GSK3 = experiment: proteome-wide CETSA MS; assay type: cell-based; details: K562 cells, 30 µM, 60 min
Description: To verify whether the substances also lead to stabilization of proteins in the cellular system, proteome-wide CETSA experiments were performed. Therefore, lead structure 1 and some compounds from the second series (21b, 21d, 21e, 21h, and 21i) were selected for this study (Figure 6, Figure S1). While the statistical significance is plotted on the Y-axis, the relative protein amount is shown on the X-axis. […] Based on excellent proteome-wide selectivity identifying CDK16 and GSK3 as the most prominently stabilized kinases, 21d and 21i were selected for further investigations. […] We therefore decided to proceed with a CDK16-specific cellular assay.
Compressed CETSA MS assays, also known as PISA (Proteome Integral Stability Alteration assay), were performed as previously described by Chernobrovkin et. al., with some minor changes. K562 cells were obtained from ATCC. K562 cells were mixed with an equal volume of compound solution, final concentartion of 30 µM, in a buffer (20 mM HEPES, 138 mM NaCl, 5 mM KCl, 2 mM CaCl2, 1 mM MgCl2, pH 7.4). One percent and DMSO was used as a control. Cells were incubated at +37 °C for 60 min. The cell suspension was split into 12 aliquots which were heated at a different temperature between 44 and 66 °C for 3 min. After the heating, the cells were lysed through freeze–thawing them 3 times and the lysed aliquots were pooled together. Cell debris and aggregates were removed through centrifugation (20 min at 30.000× g).

T1 sequence (Q00536 163-478): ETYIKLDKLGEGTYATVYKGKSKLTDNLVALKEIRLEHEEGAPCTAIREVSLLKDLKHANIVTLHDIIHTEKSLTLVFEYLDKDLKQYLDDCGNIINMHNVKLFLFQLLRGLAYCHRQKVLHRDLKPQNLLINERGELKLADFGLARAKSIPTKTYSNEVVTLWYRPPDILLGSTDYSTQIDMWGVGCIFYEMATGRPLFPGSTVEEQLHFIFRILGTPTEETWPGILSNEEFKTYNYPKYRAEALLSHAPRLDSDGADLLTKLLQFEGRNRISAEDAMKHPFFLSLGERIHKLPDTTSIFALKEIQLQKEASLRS
Sequence of GSK3B (P49841 35-386): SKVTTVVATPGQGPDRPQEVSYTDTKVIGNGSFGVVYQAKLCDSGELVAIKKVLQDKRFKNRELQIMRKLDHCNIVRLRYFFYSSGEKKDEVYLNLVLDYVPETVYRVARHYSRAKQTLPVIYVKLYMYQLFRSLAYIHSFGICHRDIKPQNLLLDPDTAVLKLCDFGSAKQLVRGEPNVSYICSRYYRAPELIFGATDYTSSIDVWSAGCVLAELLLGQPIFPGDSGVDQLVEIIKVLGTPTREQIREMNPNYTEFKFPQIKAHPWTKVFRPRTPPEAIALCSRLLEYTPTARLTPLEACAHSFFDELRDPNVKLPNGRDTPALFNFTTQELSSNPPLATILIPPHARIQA
T3 sequence (Q96RR4 161-449): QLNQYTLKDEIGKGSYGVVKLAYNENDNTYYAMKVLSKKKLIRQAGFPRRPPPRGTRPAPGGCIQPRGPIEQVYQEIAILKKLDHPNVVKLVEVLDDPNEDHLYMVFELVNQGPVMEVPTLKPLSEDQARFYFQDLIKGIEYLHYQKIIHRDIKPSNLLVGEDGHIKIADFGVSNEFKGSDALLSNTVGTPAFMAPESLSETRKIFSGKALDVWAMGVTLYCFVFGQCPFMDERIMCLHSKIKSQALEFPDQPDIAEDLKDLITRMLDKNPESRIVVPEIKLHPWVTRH

| SMILES | ΔTm at 10 µM (CDK16) [°C] | ΔTm at 10 µM (CDK2) [°C] | ΔTm CAMKK2 (CAMKK2) [°C] | ΔTm MAP2K6 (MAP2K6) [°C] | ΔTm MAPK15 (MAPK15) [°C] | effect on the cell cycle (FUCCI) (HCT116-FUCCI cells) | ΔTm at 10 µM (GSK3B) [°C] | pyknosed nuclei (HCT116-FUCCI cells; 1 µM) [%] | pyknosed nuclei (HCT116-FUCCI cells; 10 µM) [%] | effect on cell count (HCT116-FUCCI cells) | cells compared to the control (HCT116-FUCCI cells) | ΔTm RPS6KA6 (RPS6KA6) [°C] | stabilization in CETSA MS (CDK16 and GSK3) |
| --- | --- | --- | --- | --- | --- | --- | --- | --- | --- | --- | --- | --- | --- |
| CC(C)OC(=O)c1cc(Nc2ccnc(NCc3ccc(NC(=O)OC(C)(C)C)cc3)n2)n[nH]1 [42d, isopropyl 3-((2-((4-((tert-butoxycarbonyl)amino)benzyl)amino)pyrimidin-4-yl)amino)-1H-pyrazole-5-carboxylate] | 8.4 | 3 | -0.6 | 5.0 | 7.0 | accumulation of cells in G2/M phases | 4.7 | – | – | – | – | – | – |
| CC(C)(C)OC(=O)Nc1ccc(CNc2nccc(Nc3cc(C(=O)OC(C)(C)C)[nH]n3)n2)cc1 [43d, tert-butyl 3-((2-((4-((tert-butoxycarbonyl)amino)benzyl)amino)pyrimidin-4-yl)amino)-1H-pyrazole-5-carboxylate] | 9.2 | 3.2 | 0.1 | 3.0 | 5.8 | G2/M phase cell cycle arrest; also recorded: accumulation of cells in G2/M phases | 2.9 | 10 | 45 | decreased the cell count in a dose-dependent manner | less than 50% | – | – |
| COC(=O)c1cc(Nc2ccnc(NCCOCCNC(=O)OC(C)(C)C)n2)[nH]n1 [21d, methyl 5-((2-((2-(2-((tert-butoxycarbonyl)amino)ethoxy)ethyl)amino)pyrimidin-4-yl)amino)-1H-pyrazole-3-carboxylate] | 4.3 | 1.9 | 0.5 | 1.4 | 4.1 | – | 6.2 | – | – | – | – | -0.3 | stabilization of CDK16 and GSK3 |
| N#CCc1ccc(Nc2nccc(Nc3cc(C4CC4)[nH]n3)n2)cc1 [compound 1, reference compound] | 10.3 | 15.2 | 12.0 | 10.4 | 17.4 | no effect on the cell cycle | 14 | – | – | – | – | 0.4 | stabilization of CDK16 and GSK3 |
| COC(=O)c1cc(Nc2ccnc(NCc3ccc(NC(=O)OC(C)(C)C)cc3)n2)[nH]n1 [21i, methyl 5-((2-((4-((tert-butoxycarbonyl)amino)benzyl)amino)pyrimidin-4-yl)amino)-1H-pyrazole-3-carboxylate] | 6.5 | 3.3 | 1.1 | 5.4 | 5.9 | accumulation of cells in G2/M phases | 7.2 | – | – | decreased the cell count | less than 50% | -0.3 | stabilization of CDK16 and GSK3 |
